Reference: patent US5310884A (Merck Frosst Canada, Inc., priority 1992, dated 1994)
Read-outs that look alike come from different tables or passages of the source. One block for each compound: values may come before it.

Tests used:
[1] = target: T1, LTD4 receptor (guinea-pig lung membranes) (Cavia porcellus, UniProt Q2NNR5); test: biochemical; conditions: for effect of divalent cation on [3H]LTD4 specific binding: CaCl2 at concentrations above 30 mM, MgCl2 instead of CaCl2
T1 sequence (Q2NNR5 1-340): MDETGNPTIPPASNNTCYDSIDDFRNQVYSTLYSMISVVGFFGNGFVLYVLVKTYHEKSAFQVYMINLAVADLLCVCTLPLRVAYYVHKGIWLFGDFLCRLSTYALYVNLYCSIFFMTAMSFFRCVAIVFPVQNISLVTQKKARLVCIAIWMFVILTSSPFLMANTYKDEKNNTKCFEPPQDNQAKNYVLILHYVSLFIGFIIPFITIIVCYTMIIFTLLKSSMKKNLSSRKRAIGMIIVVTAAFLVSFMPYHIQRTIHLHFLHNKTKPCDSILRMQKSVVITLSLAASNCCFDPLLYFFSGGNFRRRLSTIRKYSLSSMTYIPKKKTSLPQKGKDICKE
Description: (§1) Guinea pigs (male; 350 g) were sacrificed by cervical dislocation and the lung tissues removed. All subsequent procedures were performed either on ice or at 4° C. Connective tissue, trachea, large blood vessels and major airways were dissected away and the remaining lung tissue (primarily parenchyma) was finely minced prior to homogenisation in 10 vol of 10 mM HEPES/KOH pH 7.4, containing 0.25 M sucrose, 2 mM EDTA, 2 mM phenylmethylsulphonyl fluoride, 10 μg/ml pepstatin, 10 μg/ml leupeptin and 10 μM E-64, using 5 s bursts of a polytron (Brinkman Instruments). The homogenate was subjected to differential centrifugation at 1000×g for 10 min, 10,000×g for 10 min and 100,000×g for 40 min. The resulting 100,000×g pellets were resuspended in 10 mM HEPES/KOH pH 7.4, containing 10% (w/v) sucrose, at a final protein concentration of 1-2 mg/ml. This tissue suspension was carefully layered over 10 mM HEPES/KOH pH 7.4 containing 40% (w/v) sucrose in a 3:2 (v/v) ratio. The discontinuous sucrose gradient was centrifuged at 83,000×g for 60 min. The membrane fraction located at the interface of the sucrose gradient layers was recovered, diluted 10-fold in 10 mM HEPES/KOH pH 7.4 and further centrifuged at 150,000×g for 40 min. The final membrane pellets were resuspended in 10 mM HEPES/KOH pH 7.4 at a protein concentration of 2-4 mg/ml and stored at […].
Competition experiments were analysed and IC50 values derived using the Kinetic, EBDA, Ligand, […] program from Biosoft (McPherson, 1985).
(§2) FIG. 4. […] Radiolabelled proteins were resolved by SDS-PAGE and visualized by autoradiography. […] In addition, photoaffinity labelled membranes were subjected to immunoprecipitation with RAGpAlb (Lane C) and non-immune rabbit serum (Lane D), as described in the Methods. The migration of molecular weight standards is indicated on the left. FIGS. 5(A)-5(C). […] Results are expressed as percentage of maximum specific binding as a function of CaCl2 concentration. […] Only the results for total binding are shown.
(§3) Results are expressed as percentage of maximum specific binding as a function of nucleotide concentration. […] Only the results for total binding are shown.
(§4) Results are expressed as percentage of maximum specific binding as a function of cation concentration. […] Only the results for total binding are shown.

[2] = target: T1, LTD4 receptor (guinea-pig lung membranes); conditions: for effect of divalent cation on [125I]Azido-LTD4 specific binding: CaCl2 at concentrations above 30 mM, MgCl2 instead of CaCl2
Description: as §1
Filters were then washed with 16 ml of 10 mM HEPES/KOH, pH 7.4 containing 0.01% (w/v) bovine serum albumin, at 4° C.
as §2, §3, §4

[3] = test system: 45 kDa guinea-pig lung membrane protein; test: [125I]Azido-LTD4 photoaffinity labelling of the 45 kDa guinea-pig lung membrane protein (SDS-PAGE, autoradiography, laser densitometry); format: binding; conditions: for effect of divalent cation on photolabelling of the 45 kDa protein: CaCl2, same concentration range, MgCl2 instead of CaCl2
Description: as §1
(§5) Samples were incubated for 60 min at room temperature. […] The residual samples were then transferred to 25 mm diameter cluster plate well for photolysis. The cluster plates were placed on aluminium blocks, pre-cooled to -20° C., and illuminated from above with a 40 W ultraviolet light source (Phillips, γmax =350 nm) at a distance of 10 cm for 2 min. The guinea-pig lung membranes were then recovered from 1 ml sample aliquots by centrifugation at 150,000×g for 15 min at 4° C. and solubilized in sodium dodecyl sulphate polyacrylamide gel electrophoresis (SDS-PAGE) sample buffer prior to resolution of the proteins by SDS-PAGE (Laemmli, 1970). Protein bands were visualized by Coomassie Blue staining while radiolabelled proteins were identified by autoradiography of dried gels and quantified by laser densitometry (Molecular Dynamics, ImageQuant).
as §2, §3, §4

[4] = target: T2, 45 kDa guinea-pig lung membrane protein (Cavia porcellus, UniProt Q2NNR5); test: as above; format: binding; conditions: for IC50: laser densitometry, leukotrienes and antagonists, read-out: IC50 for inhibition of photolabelling of the 45 kDa protein
T2 construct: Guinea pigs (male; from tissue; host or cells: guinea-pig lung (primarily parenchyma), sucrose-gradient membrane fraction
T2 sequence (Q2NNR5 1-340): T1 sequence (Q2NNR5 1-340)
Description: as §1, §5, §2, §3, §4

[5] = target: T1, LTD4 receptor (guinea-pig lung membranes); test: Rates of association and dissociation of radioligand binding to guinea-pig lung membranes; set-up: Guinea pigs (male; from tissue; host or cells: guinea-pig lung (primarily parenchyma), sucrose-gradient membrane fraction; conditions: identical experimental conditions; data not shown
Description: FIG. 3. […] Aliquots (500 μl) were removed and filtered at the required time intervals.

[6] = target: T1, LTD4 receptor (guinea-pig lung membranes); test: Saturation binding to guinea-pig lung membranes, Scatchard plot analysis; set-up: Guinea pigs (male; 350 g) were sacrificed by cervical dislocation and the lung tissues removed; from tissue; host or cells: guinea-pig lung (primarily parenchyma), sucrose-gradient membrane fraction; conditions: Scatchard, single site

SMILES: Nc1ncnc2c1ncn2[C@@H]1O[C@H](COP(=O)(O)OP(=O)(O)OP(O)(O)=S)[C@@H](O)[C@H]1O [ATPγS]
effect of nucleotide analogue on [3H]LTD4 specific binding ([1]; ATPγS): no detectable effect | potency relative to GTPγS in inhibiting [125I]Azido-LTD4 specific binding (fold less potent) ([2]; ATPγS vs GTPγS): 100 fold

concentration for optimal [3H]LTD4 specific binding [1]: 3 to 30 mM | effect of divalent cation on [3H]LTD4 specific binding [1]: higher concentrations proving inhibitory | concentration for optimal [125I]Azido-LTD4 specific binding [2]: 3 to 30 mM | effect of divalent cation on [125I]Azido-LTD4 specific binding [2]: higher concentrations proving inhibitory
SMILES: [Ca+2].[Cl-].[Cl-] [CaCl2]
concentration for optimal radiolabelling of the 45 kDa protein [3]: 3 to 30 mM | effect of divalent cation on photolabelling of the 45 kDa protein [3]: enhanced

SMILES: Nc1nc2c(ncn2[C@@H]2O[C@H](COP(=O)(O)OP(=O)(O)OP(O)(O)=S)[C@@H](O)[C@H]2O)c(=O)[nH]1 [GTPγS]
potency relative to ATPγS in inhibiting photolabelling of the 45 kDa protein (fold more potent) ([3]; GTPγS vs ATPγS): 100 fold | IC50 ([3]; nucleotide analogue, read-out: IC50 for inhibition of photolabelling of the 45 kDa protein): 1 µM | inhibition at 1000 µM ([1]; read-out: inhibition of [3H]LTD4 specific binding): 60% | inhibition of [125I]Azido-LTD4 specific binding ([2]; 10 μM GTPγS): complete inhibition

SMILES: [Cl-].[K+] [KCl]
inhibition of photolabelling of the 45 kDa protein ([3]; KCl, 0-100 mM): did not significantly inhibit | inhibition of [3H]LTD4 specific binding ([1]; KCl, 0-100 mM): did not significantly inhibit | inhibition of [125I]Azido-LTD4 specific binding ([2]; KCl, 0-100 mM): did not significantly inhibit

concentration at which it competes for radiolabelling of the 45 kDa protein ([4]; LTB4): 10 µM | potency relative to LTD4 (fold less potent), [3H]LTD4 specific binding ([1]; vs LTD4): approximately 10000 fold | potency relative to LTD4 (fold less potent), [125I]Azido-LTD4 specific binding ([2]; vs LTD4): approximately 10000 fold
SMILES: CCCCC/C=C\C[C@@H](O)/C=C/C=C/C=C\[C@@H](O)CCCC(=O)O [LTB4]

IC50 [4]: 0.001 µM | IC50 [1]: 0.002 µM | IC50 ([2]; read-out: IC50 for competition with [125I]Azido-LTD4 specific binding, leukotrienes and antagonists, LTC4 with 50 mM serine-borate): 0.003 µM
SMILES: CN(C)C(=O)CCSC(SCCC(=O)O)c1cccc(/C=C/c2ccc3ccc(Cl)cc3n2)c1 (centres unmarked) [MK-571]

concentration producing inhibition of [3H]LTD4 specific binding ([1]; weak competing ligand): > 1 µM | concentration producing inhibition of [125I]Azido-LTD4 specific binding ([2]; weak competing ligand): > 1 µM
SMILES: CC(C)c1ccc2c(c1)c(SC(C)(C)C)c(CC(C)(C)C(=O)O)n2Cc1ccc(Cl)cc1 [MK-886]
competition for radiolabelling of the 45 kDa protein ([4]; MK-886, 0-10 μM): only able to compete for the selective radiolabelling of the 45 kDa protein at similarly high ligand concentrations

effect of divalent cation on [3H]LTD4 specific binding [1]: Identical results | effect of divalent cation on [125I]Azido-LTD4 specific binding [2]: Identical results
SMILES: [Cl-].[Cl-].[Mg+2] [MgCl2]
effect of divalent cation on photolabelling of the 45 kDa protein [3]: Identical results

SMILES: [Cl-].[Na+] [NaCl]
IC50 ([3]; monovalent cation, read-out: IC50 for inhibition of radiolabelling of the 45 kDa protein): ~30000 µM | IC50 ([1]; read-out: IC50 for inhibition of [3H]LTD4 specific binding, monovalent cation): ~30000 µM | IC50 ([2]; read-out: IC50 for inhibition of [125I]Azido-LTD4 specific binding, monovalent cation): ~30000 µM

SMILES: CCCCC/C=C\C\C=C/C=C/C=C/[C@@H](SCC(N)C(=O)NCC(=O)O)[C@@H](O)CCCC(=O)O (some centres unmarked) [[^3 H]LTD4]
association and dissociation profile compared with [125I]Azido-LTD4 [5]: identical | maximum number of binding sites (Bmax) [6]: 2000 fmol/mg protein

Ki [1]: 0.0017 µM | Ki relative to LTD4 (fold higher) ([1]; vs Ki of LTD4, same assay): 5 fold
SMILES: CCCCC/C=C\C\C=C/C=C/C=C/[C@@H](SC[C@H](NC(=O)CCCCCNC(=O)c1cc(I)c(N=[N+]=[N-])cc1O)C(=O)NCC(=O)O)[C@@H](O)CCCC(=O)O [^127 lAzido-LTD4]

IC50 [4]: 0.0003 µM
SMILES: COc1cc(C(=O)NS(=O)(=O)c2ccccc2C)ccc1Cc1cn(C)c2ccc(NC(=O)OC3CCCC3)cc12 [lCl 204,219]
